Like-named read-outs stand apart in the source and are kept apart here.
Assays:
white mice [1] = assay: Animal toxicity bioassay (acute toxicity, LD50); assay type: in vivo; conditions: intraperitoneal injection, observed 14 days
[2] = system: human breast cancer cells (ATCC HTB123); assay: Cytotoxicity assay (MTS/PMS), growth inhibition of human breast cancer cells; assay type: cell-based; set-up: concentration or dose not given beside the values; conditions: approximately 48 hours growth with test compound
Procedure: The activity in human breast cancer of the novel compounds (as earlier reported) was realized by the following procedure which determines the inhibitory effect of test samples on the growth of human breast cancer cells.
(ATCC HTB123) The HTB123 cells are grown in RPMI 1640 media+10% Fetal bovine serum+4.5 g/L glucose+10 mM HEPES+1.0 mM sodium pyruvate+1% Antibiotic/Antimycotic for approximately 48 hours at 37° C./5% CO2 in the presence of the test compound.
Growth/Non-Growth of the cells (e.g., cell density) is determined using Promega's MTS/PMS assay system. MTS (3-(4,5-dimethylthiazol-2-yl)-5-(3-carboxymethoxyphenyl)-2-(4-sulfophenyl)-2H-tetrazolium, inner salt) is an aqueous compound that is reduced to soluble formazan by the presence of NADH formed by dehydrogenases present within the HTB123 cells. The absorbance of the formazan can be measured at 490 nm and is directly proportional to the number of living cells present in the culture. PMS (Phenazine Methosulfate) is added an electron coupling reagent and greatly increases the rate of reduction.
To facilitate a full understanding of the procedure the following definitions are offered:
Test wells—wells containing test sample and Diluted HTB 123 cells
Test values—absorbance of test wells
Blank wells—wells containing test sample and HTB 123 media (HHTB2-01S); used to obtain background absorbance due to test sample
Blank values—absorbance of blank wells.
Negative Control—maximal cell growth; results of test samples will be expressed as a percent of the Negative Control
Positive Control—known inhibitor of HTB123 cells; used to validate assay system
Matrix—solvent that the samples are prepared/diluted in
Assay samples of similar origin and matrix (e.g., methanol extraction, methylene chloride extraction, water soluble samples, etc.) together on the same plate in order to reduce the number of steps performed per plate.
Blank values will be determined for each sample to account for any color contribution due to the sample itself. These blank wells must contain the same amount of sample plus HTB123 media (no cells). After completion of MTS/PMS reaction blank values will be subtracted from the test value to obtain a net absorbance that will be used to calculate cell density.
All results are based upon a comparison to the Negative Control value of the plate. The Negative Control must contain the same amount of matrix (e.g., solvent) to offset any destructive effect the matrix may have on the growth of the HTB123 cells (allows for baseline values to be set).
For most samples, a HTB123 cell growth (diluted two to four-fold, depending upon the appearance of the inoculum*) of approximately 48 hours followed by and incubation of 3 hours with the MTS/PMS Reagent is optimal.
*Due to the nature of the HTB123 cells it is very difficult to obtain accurate cell densities. Continuation of the HTB123 cell line typically consists of the dilution of mature cells at two or three-fold into fresh media and growth at 37° C./5% CO2 for two to three days.
In order to establish the accuracy of this assay a Positive Control consisting of 50 μM Methotrexate should […] 90% of the Negative Control (HTB123 cells are somewhat resistant to methotrexate) is utilized.

[3] = Animal toxicity bioassay (acute toxicity, LD50); assay type: in vivo; conditions: both sexes, mouse, in vivo, ip, white mice, intraperitoneal injection, observed 14 days
[4] = Solubility in solvents and water; assay type: physicochemical; conditions: for Solubility in organic solvents: organic solvents as listed
Stability in solution = assay type: physicochemical; conditions: solution heated or stored for a long time; decomposes with formation of OF-12
[5] = background statement; cited from earlier work
white mice [6] = conditions: same bioassay system (JZKEDZ 6,1,1980); cited from earlier work
[7] = read-out: LD50 (animal toxicity)

SMILES | Activity (ATCC HTB123) [2] | LD50 at 14 days [3, 7] | Solubility in organic solvents [4] | percent activity against human breast carcinoma [2] | further results
COC(=O)/C(=C/C(=O)c1ccccc1)NN=C1c2ccccc2-c2ccccc21 [1F-04, 2-(N′-Fluoren-9-ylidene-hydrazino)-4-oxo-4-phenyl-but-2-enoic acid methyl ester] | 93% |  |  |  | LD50 (white mice [1]): >1000 mg/kg
COC(=O)C1(O)C(C(=O)c2ccc(C)cc2)=C(O)C(=O)N1c1ccc(C)cc1C (centres unmarked) [1F-07, 1-(2,4-Dimethyl-phenyl)-2,4-dihydroxy-3-(4-methyl-benzoyl)-5-oxo-2,5-dihydro-1H-pyrrole-2-carboxylic acid methyl ester] |  | > 500 mg/kg | highly soluble in DMSO, acetonitrile, slightly soluble in dichloroethane, benzene, insoluble in hexane tetrachloromethane | 100% | Solubility in water [4]: insoluble
COc1ccc(C(=O)C(=NNc2ccccc2)C(=O)C(=O)O)cc1 [3F-10, 4-(4-Methoxy-phenyl)-2,4-dioxo-3-(phenyl-hydrazono)-butyric acid] |  | < 750 mg/kg | highly soluble in DMSO, DMFA, slightly soluble in chloroform, dichloroethane; insoluble in hexanes | 100% | 
CCOC(=O)C(=O)C(=NNc1ccccc1)C(=O)c1ccc(Cl)cc1 [3F-11, 4-(4-Chloro-phenyl)-2,4-dioxo-3-(phenyl-hydrazono)-butyric acid ethyl ester] |  | > 2000 mg/kg |  | 100% | 
COc1c(F)c(F)c(C(=O)C=C(O)C(=O)O)c(F)c1F [3F-15, 2-Hydroxy-4-oxo-4-(2,3,5,6-tetrafluoro-4-methoxy-phenyl)-but-2-enoic acid] |  | > 200 mg/kg |  | 100% | 
Cc1ccc(C(=O)C2=NN(c3ccccc3)C(=O)C2(O)O)cc1 [3F-16, 4,4-Dihydroxy-5-(4-methyl-benzoyl)-2-phenyl-2,4-dihydro-pyrazol-3-one] |  | > 500 mg/kg | highly soluble in DMSO, dioxane | 100% | Solubility in water [4]: insoluble
CCOc1ccc(C(Cl)=CC(=NN=C2c3ccccc3-c3ccccc32)C(=O)OC)cc1 [3F-19, 4-Chloro-4-(4-ethoxy-phenyl)-2-(fluoren-9-ylidene-hydrazono)-but-3-enoic acid methyl ester] | 100% |  |  |  | LD50 at 14 days ([3]; read-out: LD50): > 200 mg/kg
COC(=O)C(=CC(=O)C(C)(C)C)NN=C1c2ccccc2-c2ccccc21 [OF-06, 2-(N′-Fluoren-9-ylidene-hydrazino)-5,5-dimethyl-4-oxo-hex-2-enoic acid methyl ester] |  |  | highly soluble in DMSO, DMFA, dichloroethane, acetonitrile, slightly soluble in ethanol, tetrachloromethane, insoluble in hexane | 100% | Solubility in water [4]: insoluble
CCOc1ccc(C(=O)CC(O)(NN=C2c3ccccc3-c3ccccc32)C(=O)OC)cc1 (centres unmarked) [OF-13, 4-(4-Ethoxy-phenyl)-2-(N′-fluoren-9-ylidene-hydrazino)-2-hydroxy-4-oxo-butyric acid methyl ester] | 100% |  | highly soluble in DMSO, DMFA, dichloroethane, acetonitrile, insoluble in hexane |  | LD50 (white mice [1]): >1500 mg/kg; Stability in solutions (Stability in solution): not stable in solutions
COC(=O)/C(=C/C(=O)c1ccccc1)N/N=C(\C)c1ccc(Cl)cc1 [OF-20, 2-{N′-[1-(4-Chloro-phenyl)-ethylidene]-hydrazino}-4-oxo-4-phenyl-but-2-enoic acid methyl ester] | 83% |  |  |  | 
CC(=O)O[C@H]1C(=O)[C@@]2(C)[C@H]([C@H](OC(=O)c3ccccc3)[C@]3(O)C[C@H](OC(=O)[C@H](O)[C@@H](NC(=O)c4ccccc4)c4ccccc4)C(C)=C1C3(C)C)[C@]1(OC(C)=O)CO[C@@H]1C[C@@H]2O [Taxol] |  |  |  |  | Solubility in water [5]: insoluble in water; intraperitoneal LD50 dose in mice (white mice [6]): 218 mg/kg
